In patent EP4755881A1 (Wuhan Createrna Science and Technology Co., Ltd., priority 2023, dated 2025):
Read-outs that look alike come from different tables or passages of the source.

Legend:
[1] = biological target: hLPAR1 (human lysophosphatidic acid receptor 1, Accession No.: NM_001401.4) (Homo sapiens, UniProt Q92633); assay: cell-based; conditions: FLIPR method, CHO-K1 cells overexpressing hLPAR1
Summary of the method: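 Antagonist mode in CHO-K1 cells stably expressing hLPAR1, Fluo-4 loaded; compound preincubated 30 min at room temperature before 1 µM oleoyl-LPA (final) challenge.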

[2] = Pharmacokinetic study in rats (oral gavage and tail vein injection, plasma LC-MS/MS); format: in vivo
Description: Male SPF-grade SD rats (Beijing Vital River Laboratory Animal Technology Co., Ltd.) with a body weight range of 200 to 250 g were used. After acclimatization, the rats were administered a clear solution of the compound of the present disclosure via oral gavage (Po, fasted overnight before administration with free access to water, food returned 4 hours after administration) and tail vein injection (Iv, free access to food and water throughout the administration). Blood samples were collected from the orbital venous plexus/jugular vein of rats at specified time points after administration (blood collection time points for the PO group: 0.167, 0.5, 1, 2, 4, 6, 8, and 24 h; for the IV group: 0.033, 0.167, 1, 2, 4, 6, 8, and 24 h). The concentration of compounds in plasma was detected by LC-MS/MS (AB SCIEX Qtrap4500). Data were analyzed using WinNonlin (version 5.2.1 Pharsight, Mountain View, CA) with a non-compartmental model to obtain PK parameters (including Cmax, C0, Tmax, AUClast, AUCinf, T1/2, etc.).
Table 3: Results of in vivo pharmacokinetic studies of compounds of the present disclosure in rats
The vehicle for the Po group compound was 5% DMSO + 5% ethanol + 60% PEG400 + 30% normal saline; the vehicle for the Iv group compound was 10% ethanol + 20% pure water + 70% PEG400 solution.

[3] = LPAR1 inhibitory activity IC50, Table 1
[4] = rat, SD rats, Iv, 1 mg/kg, read-out: Cmax
[5] = rat, SD rats, Po, 1 mg/kg, read-out: Cmax
[6] = Table 1, read-out: LPAR1 inhibitory activity IC50
[7] = male, rat, SD rats, Iv, 1 mg/kg
[8] = male, rat, SD rats, Iv, 1 mg/kg, read-out: Cmax
[9] = male, rat, SD rats, Po, 1 mg/kg
[10] = male, rat, SD rats, Po, 1 mg/kg, read-out: Cmax
[11] = male, rat, SD rats, Po, 3 mg/kg
[12] = male, rat, SD rats, Po, 3 mg/kg, read-out: Cmax

Chain of hLPAR1 (human lysophosphatidic acid receptor 1, Accession No.: NM_001401.4) (Q92633 whole entry): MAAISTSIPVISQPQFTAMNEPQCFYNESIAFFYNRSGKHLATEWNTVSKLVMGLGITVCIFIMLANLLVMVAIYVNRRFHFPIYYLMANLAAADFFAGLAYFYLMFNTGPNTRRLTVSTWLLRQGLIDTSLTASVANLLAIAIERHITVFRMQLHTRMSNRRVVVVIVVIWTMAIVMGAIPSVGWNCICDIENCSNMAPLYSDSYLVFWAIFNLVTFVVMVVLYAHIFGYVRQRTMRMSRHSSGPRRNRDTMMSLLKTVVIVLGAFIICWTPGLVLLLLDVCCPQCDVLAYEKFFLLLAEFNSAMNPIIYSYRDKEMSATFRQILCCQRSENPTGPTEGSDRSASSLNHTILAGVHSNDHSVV

Structure (SMILES) | IC50 [1, 6] | half-life ([2]; male, SD, rat, iv, 1 mg/kg) | AUC(0-t) [2, 7] | Cmax [2, 8] | AUC(0-t) ([2]; rat, SD rats, Iv, 1 mg/kg) | half-life ([2]; rat, SD rats, Iv, 1 mg/kg) | Cmax [2, 4] | other results
Cc1nc(-c2nnn(C)c2NC(=O)O[C@H](C)CC(C)(C)F)ccc1C#CC1(CC(=O)O)CC1 [compound 263] |  |  |  |  | 3000 to 5000 ng·h/mL | 13.8 h | 800 to 5000 ng/mL | IC50 [1, 3]: 52.8 nM; AUC(0-t) ([2]; rat, SD rats, Po, 1 mg/kg): 5000 to 10000 ng·h/mL; half-life ([2]; rat, SD rats, Po, 1 mg/kg): 10.2 h; Cmax [2, 5]: 200 to 800 ng/mL
Cc1nc(-c2nnn(C)c2NC(=O)OC(C)CC2CC2)ccc1C#CC1CCC1C(=O)O (single isomer, unassigned) [248-A] | 18.1 nM |  |  |  | 3000 to 5000 ng·h/mL | 7.72 h | 800 to 5000 ng/mL | AUC(0-t) ([2]; rat, SD rats, Po, 1 mg/kg): 5000 to 10000 ng·h/mL; half-life ([2]; rat, SD rats, Po, 1 mg/kg): 5.33 h; Cmax [2, 5]: 200 to 800 ng/mL
Cc1nc(-c2nnn(C)c2Nc2cncc(OC(C)C)n2)ccc1C#CC1(CC(=O)O)CC1 [compound 125, 2-(1-((6-(5-((6-isopropoxypyrazin-2-yl)amino)-1-methyl-1/7-1,2,3-triazol-4-yl)-2-methylpyridin-3-yl)ethynyl)cyclopropyl)acetic acid] |  |  |  |  | 1200 to 3000 ng·h/mL | 4.65 h | 800 to 5000 ng/mL | IC50 [1, 3]: 43.6 nM
Cc1nc(-c2nnn(C)c2CNC(=O)OCc2ccccc2)ccc1C#CC1(CC(=O)O)CC1 [compound 215] |  |  |  |  | 1200 to 3000 ng·h/mL | 5.03 h | 800 to 5000 ng/mL | IC50 [1, 3]: 43 nM; AUC(0-t) ([2]; rat, SD rats, Po, 3 mg/kg): 5000 to 10000 ng·h/mL; half-life ([2]; rat, SD rats, Po, 3 mg/kg): 4.49 h; Cmax ([2]; rat, SD rats, Po, 3 mg/kg, read-out: Cmax): 800 to 5000 ng/mL
Cc1nc(-c2nnn(C)c2NC(=O)OC(C)c2cc(F)cnc2Cl)ccc1C#CC1(CC(=O)O)CC1 (single isomer, unassigned) [023-A, 2-(1-((6-(5-(((1-(2-chloro-5-fluoropyridin-3-yl)ethoxy)carbonyl)amino)-1-methyl-1H-1,2,3-triazol-4-yl)-2-methylpyridin-3-yl)ethynyl)cyclopropyl)acetic acid] | 37.2 nM | 7.5 h | 3000 to 5000 ng·h/mL | 5000 to 8000 ng/mL |  |  |  | 
CCC(F)(F)[C@@H](C)OC(=O)Nc1c(-c2ccc(C#C[C@@H]3CC[C@H]3C(=O)O)c(C)n2)nnn1C (mixture of isomers) [212-B, trans-2-((6-(5-(((((R)-3,3-difluoropentan-2-yl)oxy)carbonyl)amino)-1-methyl-1H-1,2,3-triazol-4-yl)-2-methylpyridin-3-yl)ethynyl)cyclobutane-1-carboxylic acid] | 25.9 nM | 7.43 h | 5000 to 10000 ng·h/mL | 800 to 5000 ng/mL |  |  |  | half-life ([2]; male, SD, rat, po, 1 mg/kg): 7.96 h; AUC(0-t) [2, 9]: 5000 to 10000 ng·h/mL; Cmax [2, 10]: 800 to 5000 ng/mL
Cc1nc(-c2nnn(C)c2NC(=O)O[C@H](C)c2ccccc2Cl)ccc1C#C[C@H]1CC[C@@H]1C(=O)O [compound 033] |  |  |  |  | 3000 to 5000 ng·h/mL | 5.93 h | 800 to 5000 ng/mL | IC50 [1, 3]: 3.3 nM; AUC(0-t) ([2]; rat, SD rats, Po, 1 mg/kg): 3000 to 5000 ng·h/mL; half-life ([2]; rat, SD rats, Po, 1 mg/kg): 5.31 h; Cmax [2, 5]: 800 to 5000 ng/mL
Cc1nc(-c2nnn(C)c2NC(=O)O[C@H](C)CC(C)(F)F)ccc1C#C[C@H]1CCC[C@@H]1C(=O)O (single isomer, unassigned) [246-B] |  |  |  |  | 5000 to 10000 ng·h/mL | 7.01 h | 800 to 5000 ng/mL | IC50 [1, 3]: 25.9 nM; AUC(0-t) ([2]; rat, SD rats, Po, 1 mg/kg): 3000 to 5000 ng·h/mL; half-life ([2]; rat, SD rats, Po, 1 mg/kg): 4.4 h; Cmax [2, 5]: 200 to 800 ng/mL

Further lines, with some results ahead:

IC50 [1, 6] | half-life ([2]; male, SD, rat, iv, 1 mg/kg) | AUC(0-t) [2, 7] | Cmax [2, 8] | Structure (SMILES) | AUC(0-t) ([2]; rat, SD rats, Iv, 1 mg/kg) | half-life ([2]; rat, SD rats, Iv, 1 mg/kg) | Cmax [2, 4] | other results
19.2 nM | 5.05 h | 5000 to 10000 ng·h/mL | 800 to 5000 ng/mL | Cc1nc(-c2nnn(C)c2NC(=O)O[C@H](C)CC(C)(C)F)ccc1C#C[C@@H]1CCC[C@H]1C(=O)O (mixture of isomers) [244-B, trans-2-((6-(5-(((((R)-4-fluoro-4-methylpentan-2-yl)oxy)carbonyl)amino)-1-methyl-1H-1,2,3-triazol-4-yl)-2-methylpyridin-3-yl)ethynyl)cyclopentane-1-carboxylic acid] |  |  |  | half-life ([2]; male, SD, rat, po, 1 mg/kg): 4.07 h; AUC(0-t) [2, 9]: 5000 to 10000 ng·h/mL; Cmax [2, 10]: 800 to 5000 ng/mL
36.8 nM |  |  |  | Cc1nc(-c2nnn(C)c2NC(=O)O[C@H](C)CC(C)(F)F)ccc1C#C[C@@H]1CC[C@H]1C(=O)O (mixture of isomers) [213-B, trans-2-((6-(5-(((((R)-4,4-difluoropentan-2-yl)oxy)carbonyl)amino)-1-methyl-1H-1,2,3-triazol-4-yl)-2-methylpyridin-3-yl)ethynyl)cyclobutane-1-carboxylic acid] |  |  |  | AUClast ([2]; SD rats, Iv, 1 mg/kg): *** (5000 ng/mL*hr ≤ AUClast < 10000 ng/mL*hr); Cmax ([2]; SD rats, Iv, 1 mg/kg): ** (800 ng/mL ≤ Cmax < 5000 ng/mL); T1/2 ([2]; SD rats, Iv, 1 mg/kg): 8.67 h; half-life ([2]; male, SD, rat, po, 3 mg/kg): 9.6 h; AUC(0-t) [2, 11]: 10000 to 20000 ng·h/mL; Cmax [2, 12]: 800 to 5000 ng/mL
23.3 nM | 4.9 h | 1200 to 3000 ng·h/mL | 5000 to 8000 ng/mL | Cc1nc(-c2nnn(C)c2COc2nccc(C3CC(F)(F)C3)n2)ccc1C#CC1(CC(=O)O)CC1 [compound 216, 2-(1-((6-(5-(((4-(3,3-difluorocyclobutyl)pyrimidin-2-yl)oxy)methyl)-1-methyl-1H-1,2,3-triazol-4-yl)-2-methylpyridin-3-yl)ethynyl)cyclopropyl)acetic acid] |  |  |  | half-life ([2]; male, SD, rat, po, 3 mg/kg): 4.44 h; AUC(0-t) [2, 11]: 5000 to 10000 ng·h/mL; Cmax [2, 12]: 800 to 5000 ng/mL
9.4 nM | 7.01 h | 3000 to 5000 ng·h/mL | 800 to 5000 ng/mL | Cc1nc(-c2nnn(C)c2CNc2nccc(C3CCC3)n2)ccc1C#CC1(CC(=O)O)CC1 [compound 214, 2-(1-((6-(5-(((4-cyclobutylpyrimidin-2-yl)amino)methyl)-1-methyl-1H-1,2,3-triazol-4-yl)-2-methylpyridin-3-yl)ethynyl)cyclopropyl)acetic acid] |  |  |  | half-life ([2]; male, SD, rat, po, 3 mg/kg): 8.21 h; AUC(0-t) [2, 11]: 10000 to 20000 ng·h/mL; Cmax [2, 12]: 800 to 5000 ng/mL
11.4 nM | 3.89 h | 5000 to 10000 ng·h/mL | 800 to 5000 ng/mL | CCC(F)(F)[C@@H](C)OC(=O)Nc1c(-c2ccc(C#C[C@@H]3CCC[C@H]3C(=O)O)c(C)n2)nnn1C (mixture of isomers) [219-B, trans-2-((6-(5-(((((R)-3,3-difluoropentan-2-yl)oxy)carbonyl)amino)-1-methyl-1H-1,2,3-triazol-4-yl)-2-methylpyridin-3-yl)ethynyl)cyclopentane-1-carboxylic acid] |  |  |  | half-life ([2]; male, SD, rat, po, 1 mg/kg): 4.24 h; AUC(0-t) [2, 9]: 5000 to 10000 ng·h/mL; Cmax [2, 10]: 800 to 5000 ng/mL
21.5 nM |  |  |  | Cc1nc(-c2nnn(C)c2NC(=O)O[C@H](C)C(F)(F)C(C)C)ccc1C#CC1(CC(=O)O)CC1 [compound 265] |  |  |  | half-life ([2]; male, SD, rat, iv, 0.63 mg/kg): 7.81 h; half-life ([2]; male, SD, rat, po, 1 mg/kg): 8.5 h; AUC(0-t) ([2]; male, rat, SD rats, Iv, 0.63 mg/kg): 1200 to 3000 ng·h/mL; Cmax ([2]; male, rat, SD rats, Iv, 0.63 mg/kg, read-out: Cmax): 800 to 5000 ng/mL; AUC(0-t) [2, 9]: 3000 to 5000 ng·h/mL; Cmax [2, 10]: 200 to 800 ng/mL
83.4 nM | 7.18 h | 1200 to 3000 ng·h/mL | 5000 to 8000 ng/mL | C[C@H](C1CC1)N(C)C(=O)OCc1c(-c2ccc(C#CC3(CC(=O)O)CC3)cn2)nnn1C [compound 002, (R)-2-(1-((6-(5-((((1-cyclopropylethyl)(methyl)carbamoyl)oxy)methyl)-1-methyl-1H-1,2,3-triazol-4-yl)pyridin-3-yl)ethynyl)cyclopropyl)acetic acid] |  |  |  | half-life ([2]; male, SD, rat, po, 3 mg/kg): 3.4 h; AUC(0-t) [2, 11]: 3000 to 5000 ng·h/mL; Cmax [2, 12]: 800 to 5000 ng/mL
105 nM |  |  |  | Cc1nc(-c2nnn(C)c2COC(=O)N(C)CCC(C)F)ccc1C#CC1(CC(=O)O)CC1 (stereo not shown) [compound 037, 2-(1-((6-(5-((((3-fluorobutyl)(methyl)carbamoyl)oxy)methyl)-1-methyl-1H-1,2,3-triazol-4-yl)-2-methylpyridin-3-yl)ethynyl)cyclopropyl)acetic acid] |  |  |  | 
103 nM |  |  |  | CCC(F)CN(C)C(=O)OCc1c(-c2ccc(C#CC3(CC(=O)O)CC3)c(C)n2)nnn1C (stereo not shown) [compound 036, 2-(1-((6-(5-((((2-fluorobutyl)(methyl)carbamoyl)oxy)methyl)-1-methyl-1H-1,2,3-triazol-4-yl)-2-methylpyridin-3-yl)ethynyl)cyclopropyl)acetic acid] |  |  |  | 
42 nM |  |  |  | Cc1nc(-n2nnc(C)c2NC(=O)O[C@H](C)c2ccccc2Cl)ccc1C#CC1(CC(=O)O)CC1 [compound 006, (R)-2-(1-((6-(5-(((1-(2-chlorophenyl)ethoxy)carbonyl)amino)-4-methyl-1H-1,2,3-triazol-1-yl)-2-methylpyridin-3-yl)ethynyl)cyclopropyl)acetic acid] |  |  |  | 
52.7 nM |  |  |  | Cc1nc(-c2nnn(C)c2COC(=O)N(C)CC2CCC2(F)F)ccc1C#CC1(CC(=O)O)CC1 (stereo not shown) [compound 026, 2-(1-((6-(5-(((((2,2-difluorocyclobutyl)methyl)(methyl)carbamoyl)oxy)methyl)-1-methyl-1H-1,2,3-triazol-4-yl)-2-methylpyridin-3-yl)ethynyl)cyclopropyl)acetic acid] |  |  |  | 
